Measurements reported in patent US20130039871A1, “AQUEOUS COMPOSITION CONTAINED IN CONTAINER” (KAO CORPORATION, priority 2010, published 2013).

Test: Test 1-3: water evaporation rate of aqueous composition in open dish
Assay type: physicochemical
Details: Test 2
Description: Five grams of each of samples 1 to 15 having components shown in Table 1 were placed in respective dishes having an opening area of 13.85 cm^2 and were left at a humidity of 30% and a temperature of 30° C. Changes in weight of each sample were measured 1, 3, 5, 7, 12, 18, and 24 hr later. The slope of the changes in weight, the n of nX+m (X represents time (hr)) calculated by a least-squares method, was defined as the water evaporation rate (unit: mg/h), and the absolute value thereof was plotted. The test was conducted three times for each sample, and the average value thereof was determined. Note that a lower water evaporation rate means higher inhibition of evaporation.
Changes in weight of samples 15 to 25 shown in Table 3 were measured under the same conditions as in Test 1, and water evaporation rates were determined.
Changes in weight of samples of Examples 1 to 7 and Comparative Examples 1 to 7 having components shown below were measured under the same conditions as in Test 1, and water evaporation rates were determined. In addition, viscosities at 25° C. were measured with a B-type viscometer (Vismetron viscometer: model VS-A1, Rotor No. 1, 12 rotations, 30 sec).

## polyoxyethylene(2) behenyl ether [polyoxyethylene behenyl ether]
  Amount showing a high water-evaporation inhibiting effect: ≥ 0.2 % by mass
  Amount showing a water-evaporation inhibiting effect: ≥ 0.1 % by mass
